Laboratory results taken from PMC10010161 (RSC Advances, 2023).
Where a SMILES comes first, the peptide text is derived from it.

Key:
Horizon-LBA = type: in vitro ADME; settings: DOPC; for relative permeability compared with CsA (in words): 2 h; for degree of decrease of permeability coefficient relative to 1: 1.5 h
[1] = PAMPA; cited from earlier work
Caco-2 = Caco-2 assay; cited from earlier work

For `CC[C@@H]1NC(=O)[C@H](C)N(C)C(=O)[C@H](C(C)C)N(C)C(=O)[C@H](CC(C)C)N(C)C(=O)[C@H](CC(C)C)N(C)C(=O)[C@@H](C)NC(=O)[C@H](C)NC(=O)[C@H](CC(C)C)N(C)C(=O)[C@H](C(C)C)NC(=O)[C@H](CC(C)C)N(C)C(=O)CN(C)C1=O` [compound 1], the “relative permeability compared with CsA (in words)” value (shortened to “relative permeability”) (Horizon-LBA) was “higher permeability than CsA”.
In the case of `CC[C@@H]1NC(=O)[C@H](CC(C)C)N(C)C(=O)[C@H](C(C)C)N(C)C(=O)[C@H](CC(C)C)N(C)C(=O)[C@H](CC(C)C)N(C)C(=O)[C@@H](C)NC(=O)[C@H](C)NC(=O)[C@H](CC(C)C)N(C)C(=O)[C@H](C(C)C)NC(=O)[C@H](CC(C)C)N(C)C(=O)CN(C)C1=O` [compound 2], the “relative permeability” value (Horizon-LBA) is reported as “significant differences in the relative permeability of 2 and 3 from CsA were not observed”.
In the case of `CC[C@@H]1NC(=O)[C@H]([C@@H](C)O)N(C)C(=O)[C@H](C(C)C)N(C)C(=O)[C@H](CC(C)C)N(C)C(=O)[C@H](CC(C)C)N(C)C(=O)[C@@H](C)NC(=O)[C@H](C)NC(=O)[C@H](CC(C)C)N(C)C(=O)[C@H](C(C)C)NC(=O)[C@H](CC(C)C)N(C)C(=O)CN(C)C1=O` [compound 3], the “relative permeability” value (Horizon-LBA) is reported as “significant differences in the relative permeability of 2 and 3 from CsA were not observed”.
In the case of `CC[C@@H]1NC(=O)[C@H](C)N(C)C(=O)[C@H](C(C)C)N(C)C(=O)[C@H](CC(C)C)N(C)C(=O)[C@H](CC(C)C)N(C)C(=O)[C@@H](C)NC(=O)[C@H](C)NC(=O)[C@H](CC(C)C)N(C)C(=O)[C@H](C(C)C)NC(=O)[C@H](C)N(C)C(=O)CN(C)C1=O` [compound 5] (HELM PEPTIDE1{A.[dA].[meL].[meL].[meV].[meA].[Abu].[Sar].[meA].V.[meL]}$PEPTIDE1,PEPTIDE1,1:R1-11:R2$$$V2.0), the “degree of decrease of permeability coefficient relative to 1” value (Horizon-LBA) is reported as “less than 50%”.
In the case of `CC[C@@H]1NC(=O)[C@H](C)N(C)C(=O)[C@H](C(C)C)N(C)C(=O)[C@H](CC(C)C)N(C)C(=O)[C@H](C)N(C)C(=O)[C@@H](C)NC(=O)[C@H](C)NC(=O)[C@H](CC(C)C)N(C)C(=O)[C@H](C(C)C)NC(=O)[C@H](CC(C)C)N(C)C(=O)CN(C)C1=O` [compound 8] (HELM PEPTIDE1{A.[dA].[meA].[meL].[meV].[meA].[Abu].[Sar].[meL].V.[meL]}$PEPTIDE1,PEPTIDE1,1:R1-11:R2$$$V2.0), the “degree of decrease of permeability coefficient relative to 1” value (Horizon-LBA) is reported as “less than 50%”.
For cyclosporin O [CsO], the “permeability compared with CsA (in words)” value [1] is given as “lower permeability of CsO than CsA” and the “permeability compared with CsA (in words)” value (Caco-2) is given as “lower permeability of CsO than CsA”.
